The text below walks through data of patent US12590057B2, “Crystalline complexes” (Theracryf PLC, priority 2020, dated 2026).

Marks after values point to notes of the source that are not given here.

Format in all cases: physicochemical
Series [1] can be described thus: Preliminary stability study, related substances by HPLC. Conditions: 25° C./60% RH stability. The procedure:
Analysis of samples of sulforaphane:alpha-cyclodextrin complexes as prepared herein were carried out by HPLC according to the following method: • Column—Phenomenex Gemini C18, 5 μm, 110 Å, 250×4.6 mm; • Mobile Phase A: Water (+0.1% TFA); • Mobile Phase B: Acetonitrile (+0.1% TFA); • Flow: 1.5 mL/min; • Injection Volume: 10 μL; • Column Temperature: 25° C.; • Run Time: 40 minutes; • Sample preparation—Accurately weighed and transferred about 320 mg±30 mg of the sample to a 25-mL volumetric flask, added about 15 mL of diluent (70% water, 30% acetonitrile, 0.1% TFA) and mixed until dissolved. Diluted to volume with diluent and mixed. Transferred 3-4 mL to a syringe and filtered using a 0.45 PTFE filter, discarding the first 1-2 ml, and filtered into an autosampler vial and sealed with PTFE lined cap (prepared in duplicate); • HPLC Gradient according to Table 12
Sulforaphane and certain related impurity peaks are summarised in Table 13, Characterisation of the impurities was carried out by LC-MS and ^1H-NMR. Relative Retention Times (RRT) are based on the HPLC method described above.
Samples of Form 1 (batch ref. LS19-0004-S-8002), Form 3 prepared by minimally-agitated drying (Example 5.3; batch ref. 491-PAL-18) and Form 3 prepared by continuously-agitated filter drying (Example 5B—trial 5; batch ref. 00173-005) were stored at 5° C. (Table 14) and at 25° C./60% RH (Table 15) for 8 weeks in 60 ml Duma® bottles fitted with 45 mm Duma® caps and samples were analysed by HPLC according to the above method.

Series [2] is described as follows: Compression testing. Conditions: 20 kg, 50 kg and 100 kg for 2 minutes each. As for the experimental part:
15 mg samples of Example 3 (Form 3) were compressed into 3 mm recess discs under 20 kg, 50 kg and 100 kg of pressure for 2 minutes each.

Series [3] in a line: XRPD physical form after storage. Conditions: days 7, 9 and 29 after removal from drying oven, ambient conditions. As for the experimental part:
XRPD diffractograms were collected on a PANalytical Empyrean diffractometer using Cu Kα radiation (45 kV, 40 mA) in transmission geometry. A 0.5° sat, 4 mm mask and 0.04 rad Soller slits with a focusing mirror were used on the incident beam. A PIXcel^3D detector, placed on the diffracted beam, was fitted with a receiving slit and 0.04 rad Soller slits. The software used for data collection was X'Pert Data Collector using X'Pert Operator Interface. The data were analysed and presented using Diffrac Plus EVA or HighScore Plus.
After removal from the vacuum oven (day 0), Example 3 was reanalysed by XRPD in reflection mode on days 7, 9 and 29.
In a separate study, samples of Form 3 (Example 5.3; batch ref. 491-PAL-18) having an initial water content by KF of 2.3% w/w were tested for water content at various time points after storage double bagged in a HDPE bottle under various conditions as shown in Table 17.

A short description of series [4]: TGA mass loss (water content) after exposure to ambient conditions. As for the experimental part:
TGA data were collected on a TA Instruments Discovery TGA, equipped with a 25-position auto-sampler. Typically, 5-10 mg of each sample was loaded onto a pre-tared aluminium DSC pan and heated at 10° C./min from ambient temperature to 350° C. A nitrogen purge at 25 ml/min was maintained over the sample. The instrument control software was TRIOS and the data were analysed using TRIOS or Universal Analysis.
Example 3 was also analysed by TGA at days 1, 3, 7, 9, 15 and 20 after removal from the vacuum oven and exposure to ambient conditions, as described in Table 6.

Series [5] in a line: Storage at high humidity and/or elevated temperature. The procedure:
A sample of Example 3 (Form 3) was stored at 25° C. and 97% RH for 7 days.
A sample of Example 3 (Form 3) was stored at 40° C. and 75% RH for 7 days.

Series [6] in a line: Aqueous manipulation (slurry in water, XRPD). The procedure:
Example 3—Form 3 (100 mg) was placed in a 4 ml vial, to which H2O (200 μl, 2 volumes) was added. The sample was capped and left at ambient temperature overnight. A spatula fill of the slurry was placed in a well and analysed by XRPD in transmission mode. The XRPD analysis was repeated every 5 minutes for 36 minutes on the same sample in the well. An XRPD was recorded 4 hours later too.

Take `C[S+]([O-])CCCCN=C=S.OCC1OC2OC3C(CO)OC(OC4C(CO)OC(OC5C(CO)OC(OC6C(CO)OC(OC7C(CO)OC(OC1C(O)C2O)C(O)C7O)C(O)C6O)C(O)C5O)C(O)C4O)C(O)C3O` (stereo not shown) [Form 1]: in series [1] (8 wk), the “Related substances, HPLC RRT 0.56 (Dimer)” value is recorded as 0.20 % Area; the “Related substances, HPLC RRT 0.60 (α-CD adduct)” value is 0.10 % Area; the “Related substances, HPLC RRT 1.14 (Mixed dimer)” value is recorded as 0.06 % Area; the “Related substances, HPLC RRT 1.21 (Erysolin)” value worked out at 0.30 % Area. Moreover, in series [1] (8 wk), the “Related substances, HPLC RRT 1.58 (Thioether dimer)” value was less than 0.05 % Area and the “Related substances, Total Impurities” value was 0.99 % Area. In series [1] (Initial), the “Related substances, HPLC RRT 0.56 (Dimer)” value amounted to 0.19 % Area; the “Related substances, HPLC RRT 0.60 (α-CD adduct)” value is on record as 0.06 % Area; the “Related substances, HPLC RRT 1.14 (Mixed dimer)” value is given as less than 0.05 % Area; the “Related substances, HPLC RRT 1.21 (Erysolin)” value is recorded as 0.28 % Area. In addition, in series [1] (Initial), the “Related substances, HPLC RRT 1.58 (Thioether dimer)” value is given as less than 0.05 % Area and the “Related substances, Total Impurities” value is listed as 0.90 % Area.
As to `C[S+]([O-])CCCCN=C=S.OC[C@H]1O[C@@H]2O[C@H]3[C@H](O)[C@@H](O)[C@@H](O[C@H]4[C@H](O)[C@@H](O)[C@@H](O[C@H]5[C@H](O)[C@@H](O)[C@@H](O[C@H]6[C@H](O)[C@@H](O)[C@@H](O[C@H]7[C@H](O)[C@@H](O)[C@@H](O[C@H]1[C@H](O)[C@H]2O)O[C@@H]7CO)O[C@@H]6CO)O[C@@H]5CO)O[C@@H]4CO)O[C@@H]3CO` [Form 3], in series [2], the “decomposition by 1H-NMR after compression” value is on record as “No decomposition”. Further, the “form by XRPD after compression” value in series [2] was “still existed as Form 3”. The “solid state form by XRPD (reflection mode)” value in series [3] is “still existed as Form 3”. Besides, the TGA mass loss is 4.0* % wt in series [4] (1 day exposed to ambient conditions, average of two readings); 5.1 % wt in series [4] (3 days exposed to ambient conditions); 5.7 % wt in series [4] (7 days exposed to ambient conditions); 6.0 % wt in series [4] (9 days exposed to ambient conditions); 6.4 % wt in series [4] (15 days exposed to ambient conditions); 6.2 % wt in series [4] (20 days exposed to ambient conditions). Besides, the stabilised water content entry in series [4] (after gradual absorption of atmospheric moisture) is listed as “approximately 6 % wt”. In series [4] (at stabilised water content), the “water molecules per 1:1 sulforaphane:α-cyclodextrin complex” value is reported as 3.5 to 4. Further, the “decomposition by 1H-NMR” value in series [5] (25° C. and 97% RH for 7 days) is “no decomposition was evident”; in series [5] (40° C. and 75% RH for 7 days), “some decomposition had occurred”. Besides, in series [5] (25° C. and 97% RH for 7 days), the “form by XRPD” value is listed as “converted at this very high humidity level to Form 1”. The “form by XRPD when slurried in water” value in series [6] (2 volumes H2O, ambient temperature overnight, XRPD after 14 and 36 mins) was “converted to Form 2”. The “form by XRPD after slurry sample left at ambient conditions” value in series [6] (4 further hours at ambient conditions) is given as “converted from Form 2 to Form 1”.
